The test addresses cardiac ryanodine receptor type‐2 (RyR2) (Homo sapiens, UniProt Q92736, R176Q). Put plainly: Confocal Ca2+ spark frequency dose-response in paced CPVT patient iPSC-derived cardiomyocytes (heterozygous R176Q). The test is classed as cell-based.

Structures are written as SMILES.

Sequence of cardiac ryanodine receptor type‐2 (RyR2) (Q92736 whole entry R176Q): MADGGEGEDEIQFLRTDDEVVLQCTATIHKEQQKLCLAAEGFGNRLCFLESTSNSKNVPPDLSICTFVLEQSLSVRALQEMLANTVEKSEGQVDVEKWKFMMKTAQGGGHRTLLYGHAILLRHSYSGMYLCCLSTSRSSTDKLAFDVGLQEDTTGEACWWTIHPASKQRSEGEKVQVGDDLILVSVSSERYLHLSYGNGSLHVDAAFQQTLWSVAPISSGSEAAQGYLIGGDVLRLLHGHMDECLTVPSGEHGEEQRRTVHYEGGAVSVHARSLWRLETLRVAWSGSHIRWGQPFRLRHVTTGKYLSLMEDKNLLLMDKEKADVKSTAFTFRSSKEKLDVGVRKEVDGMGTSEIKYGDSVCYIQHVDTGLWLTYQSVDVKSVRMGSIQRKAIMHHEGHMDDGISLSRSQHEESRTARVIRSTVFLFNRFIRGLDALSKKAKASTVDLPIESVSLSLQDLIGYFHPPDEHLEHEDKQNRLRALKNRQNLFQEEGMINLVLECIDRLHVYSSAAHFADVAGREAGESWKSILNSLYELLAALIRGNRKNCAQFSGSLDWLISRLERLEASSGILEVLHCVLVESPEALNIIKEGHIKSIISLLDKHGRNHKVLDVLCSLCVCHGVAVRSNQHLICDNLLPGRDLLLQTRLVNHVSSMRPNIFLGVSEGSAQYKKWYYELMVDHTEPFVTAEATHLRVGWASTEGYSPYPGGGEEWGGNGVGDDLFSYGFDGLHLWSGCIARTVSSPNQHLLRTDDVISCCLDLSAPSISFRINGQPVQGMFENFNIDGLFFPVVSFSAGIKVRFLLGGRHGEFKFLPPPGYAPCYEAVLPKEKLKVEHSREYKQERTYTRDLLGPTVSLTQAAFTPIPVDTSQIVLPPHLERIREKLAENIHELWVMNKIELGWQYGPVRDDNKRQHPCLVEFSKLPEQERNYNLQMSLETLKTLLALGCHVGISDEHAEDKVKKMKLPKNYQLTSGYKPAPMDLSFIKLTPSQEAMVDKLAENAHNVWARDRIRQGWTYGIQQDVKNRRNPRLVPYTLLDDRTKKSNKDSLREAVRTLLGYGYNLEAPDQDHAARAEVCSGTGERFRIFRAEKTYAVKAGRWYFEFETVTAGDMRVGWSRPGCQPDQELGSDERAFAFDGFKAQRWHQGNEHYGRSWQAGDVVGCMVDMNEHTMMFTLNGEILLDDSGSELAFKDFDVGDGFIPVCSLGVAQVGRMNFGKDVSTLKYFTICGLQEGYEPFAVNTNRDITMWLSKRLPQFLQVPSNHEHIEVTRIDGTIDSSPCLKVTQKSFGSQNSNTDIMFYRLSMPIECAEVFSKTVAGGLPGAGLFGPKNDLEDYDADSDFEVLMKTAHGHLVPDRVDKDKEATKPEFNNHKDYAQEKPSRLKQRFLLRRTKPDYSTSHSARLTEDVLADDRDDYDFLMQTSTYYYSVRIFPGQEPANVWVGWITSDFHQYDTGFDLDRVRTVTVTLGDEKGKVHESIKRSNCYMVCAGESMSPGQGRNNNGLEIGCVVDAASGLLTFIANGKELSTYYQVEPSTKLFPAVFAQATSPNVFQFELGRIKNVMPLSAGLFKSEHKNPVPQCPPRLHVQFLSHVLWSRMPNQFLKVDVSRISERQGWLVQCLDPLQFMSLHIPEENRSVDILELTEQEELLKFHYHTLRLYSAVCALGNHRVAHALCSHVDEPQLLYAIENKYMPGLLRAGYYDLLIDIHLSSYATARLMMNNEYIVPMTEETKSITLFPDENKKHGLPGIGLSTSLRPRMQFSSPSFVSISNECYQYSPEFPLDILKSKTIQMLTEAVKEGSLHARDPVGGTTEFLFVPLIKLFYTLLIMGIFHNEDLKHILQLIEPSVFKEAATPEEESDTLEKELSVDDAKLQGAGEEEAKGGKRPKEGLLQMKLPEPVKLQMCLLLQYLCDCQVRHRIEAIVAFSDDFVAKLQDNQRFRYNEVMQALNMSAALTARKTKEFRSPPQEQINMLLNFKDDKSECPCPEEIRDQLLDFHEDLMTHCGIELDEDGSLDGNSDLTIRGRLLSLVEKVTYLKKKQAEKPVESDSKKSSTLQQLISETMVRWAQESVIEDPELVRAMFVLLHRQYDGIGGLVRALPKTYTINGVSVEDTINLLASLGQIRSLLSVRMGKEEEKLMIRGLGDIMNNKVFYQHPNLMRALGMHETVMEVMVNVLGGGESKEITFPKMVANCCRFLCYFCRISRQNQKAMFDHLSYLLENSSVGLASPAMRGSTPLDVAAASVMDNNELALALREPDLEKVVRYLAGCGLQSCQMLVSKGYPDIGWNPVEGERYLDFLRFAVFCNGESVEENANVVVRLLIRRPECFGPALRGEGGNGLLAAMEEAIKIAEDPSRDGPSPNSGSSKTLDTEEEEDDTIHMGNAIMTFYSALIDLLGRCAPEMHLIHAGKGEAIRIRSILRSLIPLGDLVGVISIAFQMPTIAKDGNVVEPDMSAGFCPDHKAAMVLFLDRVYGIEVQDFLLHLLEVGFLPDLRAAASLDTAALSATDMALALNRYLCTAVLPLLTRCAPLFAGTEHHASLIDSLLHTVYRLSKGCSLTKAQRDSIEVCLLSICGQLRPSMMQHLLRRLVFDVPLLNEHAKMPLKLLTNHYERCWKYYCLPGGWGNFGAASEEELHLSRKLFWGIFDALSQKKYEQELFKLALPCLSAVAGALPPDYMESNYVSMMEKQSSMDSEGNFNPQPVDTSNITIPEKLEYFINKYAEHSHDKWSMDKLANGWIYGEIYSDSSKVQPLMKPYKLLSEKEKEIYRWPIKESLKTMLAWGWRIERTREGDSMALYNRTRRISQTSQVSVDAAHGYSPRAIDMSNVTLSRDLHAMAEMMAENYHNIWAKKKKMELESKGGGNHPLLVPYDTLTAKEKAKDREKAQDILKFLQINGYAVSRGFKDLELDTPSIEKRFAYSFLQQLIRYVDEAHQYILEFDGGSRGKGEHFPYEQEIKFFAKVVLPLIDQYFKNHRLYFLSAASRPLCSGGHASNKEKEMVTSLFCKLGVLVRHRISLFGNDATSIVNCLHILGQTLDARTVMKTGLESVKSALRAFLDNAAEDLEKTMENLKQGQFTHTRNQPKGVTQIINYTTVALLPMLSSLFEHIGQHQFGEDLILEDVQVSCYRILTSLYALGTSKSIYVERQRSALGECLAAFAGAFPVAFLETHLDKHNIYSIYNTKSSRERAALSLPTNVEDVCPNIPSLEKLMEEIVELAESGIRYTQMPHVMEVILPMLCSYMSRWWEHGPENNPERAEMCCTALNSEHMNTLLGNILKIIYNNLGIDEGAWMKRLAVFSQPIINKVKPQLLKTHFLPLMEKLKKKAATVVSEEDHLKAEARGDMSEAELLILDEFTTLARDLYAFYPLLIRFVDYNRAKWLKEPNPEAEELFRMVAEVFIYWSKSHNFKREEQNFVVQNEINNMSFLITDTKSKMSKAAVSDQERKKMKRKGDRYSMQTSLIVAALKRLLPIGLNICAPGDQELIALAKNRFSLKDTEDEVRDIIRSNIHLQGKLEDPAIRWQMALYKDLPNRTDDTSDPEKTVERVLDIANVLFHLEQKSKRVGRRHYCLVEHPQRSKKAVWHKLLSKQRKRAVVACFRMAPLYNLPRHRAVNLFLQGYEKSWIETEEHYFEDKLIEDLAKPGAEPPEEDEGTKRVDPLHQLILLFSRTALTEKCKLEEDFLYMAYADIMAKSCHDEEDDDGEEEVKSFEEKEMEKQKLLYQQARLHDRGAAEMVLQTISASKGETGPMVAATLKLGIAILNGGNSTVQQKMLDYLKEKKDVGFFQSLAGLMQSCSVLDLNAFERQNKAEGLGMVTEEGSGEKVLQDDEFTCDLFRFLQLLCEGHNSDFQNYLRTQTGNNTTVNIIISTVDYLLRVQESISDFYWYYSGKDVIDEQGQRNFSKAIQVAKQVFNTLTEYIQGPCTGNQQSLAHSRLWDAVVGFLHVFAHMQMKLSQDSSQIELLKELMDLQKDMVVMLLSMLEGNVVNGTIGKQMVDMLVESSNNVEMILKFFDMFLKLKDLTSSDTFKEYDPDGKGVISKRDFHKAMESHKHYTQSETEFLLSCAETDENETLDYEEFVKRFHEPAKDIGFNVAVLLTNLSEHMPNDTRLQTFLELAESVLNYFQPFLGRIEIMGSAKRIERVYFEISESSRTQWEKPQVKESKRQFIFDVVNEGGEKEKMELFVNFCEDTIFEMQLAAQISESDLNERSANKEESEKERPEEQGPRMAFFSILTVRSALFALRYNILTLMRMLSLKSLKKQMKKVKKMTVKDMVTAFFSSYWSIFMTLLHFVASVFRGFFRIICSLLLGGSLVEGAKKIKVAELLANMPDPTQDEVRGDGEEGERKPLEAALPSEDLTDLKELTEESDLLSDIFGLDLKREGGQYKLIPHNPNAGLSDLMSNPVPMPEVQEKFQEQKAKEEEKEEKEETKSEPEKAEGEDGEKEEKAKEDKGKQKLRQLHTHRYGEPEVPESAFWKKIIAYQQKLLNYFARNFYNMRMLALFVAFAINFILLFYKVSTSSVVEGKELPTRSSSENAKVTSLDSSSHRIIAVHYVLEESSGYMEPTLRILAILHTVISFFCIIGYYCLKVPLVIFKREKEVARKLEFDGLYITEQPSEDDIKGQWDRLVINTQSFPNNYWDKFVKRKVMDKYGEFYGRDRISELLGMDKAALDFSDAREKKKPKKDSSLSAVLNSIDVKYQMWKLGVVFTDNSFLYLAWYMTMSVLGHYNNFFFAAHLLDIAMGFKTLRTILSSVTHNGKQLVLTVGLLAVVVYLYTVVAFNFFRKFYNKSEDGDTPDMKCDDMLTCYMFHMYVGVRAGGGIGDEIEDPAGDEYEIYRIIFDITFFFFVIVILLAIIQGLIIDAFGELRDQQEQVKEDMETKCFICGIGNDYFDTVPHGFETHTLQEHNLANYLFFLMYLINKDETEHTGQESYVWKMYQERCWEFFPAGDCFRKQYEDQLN

As to `CCCCNc1ccc(C(=O)OCCN(CC)CC)c(OC)c1` [EL20], the IC50 worked out at 82 nM.

For orientation: IC50 means the concentration at which inhibition is half-maximal. Lower therefore signals greater potency in that assay.

Values taken from article PMC8366453, “Efficacy of RyR2 inhibitor EL20 in induced pluripotent stem cell‐derived cardiomyocytes from a patient with catecholaminergic polymorphic ventricular tachycardia” (Journal of Cellular and Molecular Medicine, 2021).
